{"source": "ChEMBL document CHEMBL4118122", "about": "“Identification and biological evaluation of thiazole-based inverse agonists of RORγt” (Bioorg Med Chem Lett, 2018)", "key": {"Rattus norvegicus [1]": {"organism": "Rattus norvegicus", "test": "Binding affinity to rat GABA receptor at 1 uM after 60 mins by agonist radioligand binding assay relative to control"}, "Cytochrome P450 2C9": {"target": "Cytochrome P450 2C9 (Homo sapiens, UniProt P11712)", "test": "Inhibition of CYP2C9 (unknown origin)", "type": "ADME"}, "[2]": {"target": "Receptor-type tyrosine-protein kinase FLT3 (Homo sapiens) (UniProt P36888)", "sequence (P36888 whole entry, the tested form may be a part)": "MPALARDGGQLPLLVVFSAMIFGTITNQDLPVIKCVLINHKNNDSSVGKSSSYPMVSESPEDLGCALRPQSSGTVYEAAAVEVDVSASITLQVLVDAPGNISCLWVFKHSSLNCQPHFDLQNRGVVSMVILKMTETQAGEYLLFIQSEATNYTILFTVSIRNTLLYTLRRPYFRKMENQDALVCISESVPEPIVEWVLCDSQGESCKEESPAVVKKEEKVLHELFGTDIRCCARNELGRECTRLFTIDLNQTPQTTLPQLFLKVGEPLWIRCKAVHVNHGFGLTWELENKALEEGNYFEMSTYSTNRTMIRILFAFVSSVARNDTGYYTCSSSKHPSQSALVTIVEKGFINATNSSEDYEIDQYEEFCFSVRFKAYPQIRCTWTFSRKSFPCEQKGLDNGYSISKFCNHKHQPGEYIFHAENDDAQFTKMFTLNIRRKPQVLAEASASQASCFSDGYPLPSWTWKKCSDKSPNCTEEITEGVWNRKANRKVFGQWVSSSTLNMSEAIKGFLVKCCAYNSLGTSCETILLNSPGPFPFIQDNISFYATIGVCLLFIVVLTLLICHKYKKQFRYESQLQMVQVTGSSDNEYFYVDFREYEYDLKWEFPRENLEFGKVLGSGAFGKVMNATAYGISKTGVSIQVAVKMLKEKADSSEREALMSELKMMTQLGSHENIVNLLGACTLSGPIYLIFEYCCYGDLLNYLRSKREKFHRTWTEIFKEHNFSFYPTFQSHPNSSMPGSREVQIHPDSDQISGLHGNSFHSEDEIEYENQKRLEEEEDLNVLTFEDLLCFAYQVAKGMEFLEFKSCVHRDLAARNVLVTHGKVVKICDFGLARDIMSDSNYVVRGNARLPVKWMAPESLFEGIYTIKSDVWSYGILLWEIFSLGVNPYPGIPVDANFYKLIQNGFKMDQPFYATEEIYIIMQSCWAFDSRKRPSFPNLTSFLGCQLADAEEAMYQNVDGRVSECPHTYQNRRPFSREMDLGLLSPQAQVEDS", "test": "Inhibition of recombinant His-tagged human FLT3 (564 to 958 residues) cytoplasmic domain expressed in baculovirus expression system at 10 uM in presence of ATP relative to control"}, "[3]": {"target": "Neurotensin receptor type 1 (Homo sapiens, UniProt P30989)", "test": "Displacement of [125I]Tyr3-neurotensin from human recombinant NTS1 receptor at 10 uM after 120 mins by scintillation counting analysis relative to control"}, "[4]": {"target": "5-hydroxytryptamine receptor 5A (Homo sapiens, UniProt P47898)", "sequence (P47898 whole entry)": "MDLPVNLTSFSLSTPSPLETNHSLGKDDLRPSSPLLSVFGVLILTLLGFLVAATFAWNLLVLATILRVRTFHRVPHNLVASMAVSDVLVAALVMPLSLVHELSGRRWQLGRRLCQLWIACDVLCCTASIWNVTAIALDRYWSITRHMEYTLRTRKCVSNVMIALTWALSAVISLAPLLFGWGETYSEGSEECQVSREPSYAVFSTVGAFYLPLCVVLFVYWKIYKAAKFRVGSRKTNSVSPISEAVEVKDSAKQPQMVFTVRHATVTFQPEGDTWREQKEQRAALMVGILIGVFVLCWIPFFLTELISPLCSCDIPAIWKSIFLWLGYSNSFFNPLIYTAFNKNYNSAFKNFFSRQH", "test": "Displacement of [3H]LSD from human recombinant 5-HT5a receptor after 120 mins by scintillation counting analysis"}, "[5]": {"target": "T1, Nuclear receptor ROR-gamma (Homo sapiens, UniProt P51449)", "T1 sequence (P51449 whole entry)": "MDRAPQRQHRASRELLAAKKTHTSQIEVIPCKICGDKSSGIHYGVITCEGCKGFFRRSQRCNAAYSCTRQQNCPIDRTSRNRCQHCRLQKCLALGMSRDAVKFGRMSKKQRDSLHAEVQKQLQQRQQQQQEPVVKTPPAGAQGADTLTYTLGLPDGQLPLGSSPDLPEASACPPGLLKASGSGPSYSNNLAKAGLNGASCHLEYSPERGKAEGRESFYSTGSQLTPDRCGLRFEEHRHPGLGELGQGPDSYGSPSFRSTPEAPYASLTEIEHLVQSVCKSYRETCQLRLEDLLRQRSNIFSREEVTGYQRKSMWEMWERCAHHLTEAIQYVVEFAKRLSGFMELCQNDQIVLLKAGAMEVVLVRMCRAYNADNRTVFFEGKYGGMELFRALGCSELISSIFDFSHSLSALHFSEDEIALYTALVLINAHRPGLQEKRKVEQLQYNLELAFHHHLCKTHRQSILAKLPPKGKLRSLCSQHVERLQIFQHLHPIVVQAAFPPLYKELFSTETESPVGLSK", "test": "Binding affinity to recombinant human RORgamma LBD (237 to 497 residues) expressed in Escherichia coli BL21 (DE3) GOLD by 1,8-ANS dye-based thermofluor assay"}, "Cytochrome P450 2D6": {"target": "Cytochrome P450 2D6 (Homo sapiens, UniProt P10635)", "test": "Inhibition of CYP2D6 (unknown origin)", "type": "ADME"}, "Rattus norvegicus [6]": {"organism": "Rattus norvegicus", "test": "Displacement of [3H]D 888 from rat brain L-type calcium channel verapamil binding site at 10 uM after 120 mins by scintillation counting analysis relative to control"}, "[7]": {"test": "Displacement of [3H]batrachotoxinin from rat brain voltage gated sodium ion channel site 2 after 60 mins by scintillation counting analysis"}, "[8]": {"target": "Tyrosine-protein kinase JAK3 (Homo sapiens) (UniProt P52333)", "sequence (P52333 whole entry, the tested form may be a part)": "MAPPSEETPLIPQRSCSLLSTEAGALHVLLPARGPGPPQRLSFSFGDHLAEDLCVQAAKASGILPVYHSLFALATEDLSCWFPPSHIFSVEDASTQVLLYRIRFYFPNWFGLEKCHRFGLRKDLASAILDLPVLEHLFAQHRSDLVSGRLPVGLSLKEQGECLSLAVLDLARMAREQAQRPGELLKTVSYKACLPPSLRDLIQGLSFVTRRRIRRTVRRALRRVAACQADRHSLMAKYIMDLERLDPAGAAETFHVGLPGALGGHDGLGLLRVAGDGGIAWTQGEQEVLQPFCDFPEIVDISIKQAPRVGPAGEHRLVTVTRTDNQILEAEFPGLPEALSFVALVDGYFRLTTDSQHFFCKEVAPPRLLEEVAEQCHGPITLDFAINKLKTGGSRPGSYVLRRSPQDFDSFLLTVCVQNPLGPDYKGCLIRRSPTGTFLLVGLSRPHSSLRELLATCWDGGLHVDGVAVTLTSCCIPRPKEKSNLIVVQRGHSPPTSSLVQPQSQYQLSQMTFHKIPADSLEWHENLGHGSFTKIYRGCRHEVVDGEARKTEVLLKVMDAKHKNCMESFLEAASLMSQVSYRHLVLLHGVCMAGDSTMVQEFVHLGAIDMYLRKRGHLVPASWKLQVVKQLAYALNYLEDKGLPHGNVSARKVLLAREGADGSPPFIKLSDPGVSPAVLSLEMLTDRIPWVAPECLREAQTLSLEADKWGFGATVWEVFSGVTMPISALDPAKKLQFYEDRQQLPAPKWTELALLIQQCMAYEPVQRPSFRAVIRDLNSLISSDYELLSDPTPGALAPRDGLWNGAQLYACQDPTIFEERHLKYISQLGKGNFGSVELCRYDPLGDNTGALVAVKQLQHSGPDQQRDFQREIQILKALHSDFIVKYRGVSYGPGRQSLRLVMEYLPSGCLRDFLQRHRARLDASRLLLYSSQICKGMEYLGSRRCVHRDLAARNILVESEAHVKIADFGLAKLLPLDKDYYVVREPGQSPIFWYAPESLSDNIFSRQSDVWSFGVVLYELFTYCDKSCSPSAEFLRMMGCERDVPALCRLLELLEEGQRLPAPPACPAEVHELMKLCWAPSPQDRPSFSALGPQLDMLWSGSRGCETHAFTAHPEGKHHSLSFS", "test": "Inhibition of recombinant GST-tagged human JAK3 catalytic domain (781 to 1124 residues) expressed in baculovirus expression system at 10 uM in presence of ATP relative to control"}, "[9]": {"target": "Glycogen synthase kinase-3 beta (Homo sapiens) (UniProt P49841)", "sequence (P49841 whole entry, looked up)": "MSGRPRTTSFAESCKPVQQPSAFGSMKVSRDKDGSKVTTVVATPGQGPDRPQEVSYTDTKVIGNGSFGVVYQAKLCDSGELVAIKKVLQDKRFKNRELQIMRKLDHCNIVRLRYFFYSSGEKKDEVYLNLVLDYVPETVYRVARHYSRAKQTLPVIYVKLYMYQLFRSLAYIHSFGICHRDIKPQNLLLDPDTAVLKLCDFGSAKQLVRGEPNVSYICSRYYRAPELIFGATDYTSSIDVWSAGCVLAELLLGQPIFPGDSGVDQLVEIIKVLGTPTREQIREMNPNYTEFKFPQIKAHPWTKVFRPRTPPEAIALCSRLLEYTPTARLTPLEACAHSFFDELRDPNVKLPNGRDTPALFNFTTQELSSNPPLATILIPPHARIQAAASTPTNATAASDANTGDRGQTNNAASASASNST", "test": "Inhibition of recombinant full length human His-tagged GSK3beta expressed in baculovirus expression system at 10 uM in presence of ATP relative to control"}, "[10]": {"target": "Galanin receptor type 2 (Homo sapiens) (UniProt O43603)", "sequence (O43603 whole entry)": "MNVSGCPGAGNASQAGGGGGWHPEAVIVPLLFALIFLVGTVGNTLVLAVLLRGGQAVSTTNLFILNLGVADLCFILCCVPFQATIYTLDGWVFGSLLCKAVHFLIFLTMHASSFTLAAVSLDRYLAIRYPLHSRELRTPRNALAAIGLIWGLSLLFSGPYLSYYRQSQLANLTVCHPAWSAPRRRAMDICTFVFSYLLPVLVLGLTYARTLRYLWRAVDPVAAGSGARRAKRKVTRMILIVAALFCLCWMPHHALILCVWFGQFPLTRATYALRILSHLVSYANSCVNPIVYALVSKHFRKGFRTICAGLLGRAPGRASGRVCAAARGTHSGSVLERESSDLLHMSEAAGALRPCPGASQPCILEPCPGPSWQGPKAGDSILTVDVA", "test": "Displacement of [125I]-endothelin-1 from human recombinant GAL2 receptor at 10 uM after 120 mins by scintillation counting analysis relative to control"}, "Histamine H2 receptor": {"target": "Histamine H2 receptor (Homo sapiens, UniProt P25021)", "sequence (P25021 whole entry)": "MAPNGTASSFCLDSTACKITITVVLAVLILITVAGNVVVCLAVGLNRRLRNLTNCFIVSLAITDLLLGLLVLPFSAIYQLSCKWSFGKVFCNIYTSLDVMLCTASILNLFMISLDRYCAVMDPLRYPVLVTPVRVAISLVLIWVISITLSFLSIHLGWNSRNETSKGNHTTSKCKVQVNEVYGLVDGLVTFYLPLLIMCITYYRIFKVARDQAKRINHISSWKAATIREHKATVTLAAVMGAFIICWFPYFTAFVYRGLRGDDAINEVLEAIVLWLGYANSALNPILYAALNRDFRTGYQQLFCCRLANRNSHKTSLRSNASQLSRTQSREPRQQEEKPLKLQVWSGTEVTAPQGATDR", "test": "Displacement of [125I]APT from human recombinant histamine H2 receptor at 10 uM after 120 mins by scintillation counting analysis relative to control"}, "[11]": {"test": "Displacement of [3H]D 888 from rat brain L-type calcium channel verapamil binding site after 120 mins by scintillation counting analysis"}, "[12]": {"test": "Binding affinity to rat GABA receptor after 60 mins by agonist radioligand binding assay"}, "[13]": {"target": "C-X-C chemokine receptor type 2 (Homo sapiens) (UniProt P25025)", "sequence (P25025 whole entry)": "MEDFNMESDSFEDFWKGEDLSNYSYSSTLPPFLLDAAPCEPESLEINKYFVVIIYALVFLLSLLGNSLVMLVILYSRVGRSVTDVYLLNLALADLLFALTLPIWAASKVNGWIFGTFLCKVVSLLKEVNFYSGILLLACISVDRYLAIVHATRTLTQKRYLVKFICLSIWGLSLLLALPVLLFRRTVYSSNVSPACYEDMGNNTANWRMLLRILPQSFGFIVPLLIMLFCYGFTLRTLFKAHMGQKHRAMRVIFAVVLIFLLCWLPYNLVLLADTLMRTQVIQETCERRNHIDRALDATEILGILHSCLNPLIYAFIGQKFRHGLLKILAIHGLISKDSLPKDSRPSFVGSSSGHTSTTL", "test": "Displacement of [125I]IL-8 from human recombinant CXCR2 receptor at 1 uM after 60 mins by scintillation counting analysis relative to control"}, "Rattus norvegicus [14]": {"organism": "Rattus norvegicus", "test": "Displacement of [3H]D 888 from rat brain L-type calcium channel verapamil binding site at 1 uM after 120 mins by scintillation counting analysis relative to control"}, "[15]": {"target": "T1, Nuclear receptor ROR-gamma", "test": "Inverse agonist activity at RORgammat in human whole blood assessed as reduction in IL17A production"}, "Substance-K receptor": {"target": "Substance-K receptor (Homo sapiens, UniProt P21452)", "test": "Displacement of [125I]NKA from human recombinant NK2 receptor after 60 mins by scintillation counting analysis"}, "Melanocortin receptor 4": {"target": "Melanocortin receptor 4 (Homo sapiens, UniProt P32245)", "sequence (P32245 whole entry)": "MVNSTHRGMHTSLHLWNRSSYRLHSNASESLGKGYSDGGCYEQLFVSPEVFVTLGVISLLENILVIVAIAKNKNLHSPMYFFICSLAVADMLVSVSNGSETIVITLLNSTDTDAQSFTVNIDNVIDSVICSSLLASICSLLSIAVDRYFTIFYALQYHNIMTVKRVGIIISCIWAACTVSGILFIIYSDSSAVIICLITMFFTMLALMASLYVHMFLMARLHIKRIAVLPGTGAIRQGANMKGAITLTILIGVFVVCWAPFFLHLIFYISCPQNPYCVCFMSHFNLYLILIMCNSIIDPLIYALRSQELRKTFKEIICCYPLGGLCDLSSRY", "test": "Displacement of [125I]NDP-alpha-MSH from human recombinant MC4 receptor at 1 uM after 120 mins by scintillation counting analysis relative to control"}, "[16]": {"target": "Calcium/calmodulin-dependent protein kinase type II subunit beta (Homo sapiens) (UniProt Q13554)", "test": "Inhibition of recombinant full length His-tagged human CaMK2beta expressed in baculovirus expression system at 10 uM in presence of ATP relative to control"}, "[17]": {"target": "Adrenergic receptor alpha-1 (Rattus norvegicus, UniProt P15823+P23944+P43140)", "test": "Displacement of [3H]-prazosin from rat alpha1 adrenoceptor after 60 mins by scintillation counting analysis", "type": "protein assay"}, "D(2) dopamine receptor": {"target": "D(2) dopamine receptor (Homo sapiens, UniProt P14416)", "test": "Displacement of [3H]7-OH-DPAT from human recombinant dopamine D2S receptor at 1 uM after 60 mins by scintillation counting analysis relative to control"}, "[18]": {"target": "Cholecystokinin receptor type A (Homo sapiens) (UniProt P32238)", "sequence (P32238 whole entry)": "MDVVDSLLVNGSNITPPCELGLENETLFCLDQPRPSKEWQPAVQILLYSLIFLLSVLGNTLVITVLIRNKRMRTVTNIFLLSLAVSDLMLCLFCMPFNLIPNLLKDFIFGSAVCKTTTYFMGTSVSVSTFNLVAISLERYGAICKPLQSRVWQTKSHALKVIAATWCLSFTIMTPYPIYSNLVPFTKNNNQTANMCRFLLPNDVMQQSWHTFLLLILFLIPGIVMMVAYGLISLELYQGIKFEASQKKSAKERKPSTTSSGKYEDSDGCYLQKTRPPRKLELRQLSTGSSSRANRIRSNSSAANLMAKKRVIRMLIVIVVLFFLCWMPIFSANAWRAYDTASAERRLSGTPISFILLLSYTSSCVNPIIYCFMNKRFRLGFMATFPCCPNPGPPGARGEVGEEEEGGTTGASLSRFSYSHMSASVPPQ", "test": "Displacement of [125I]CCK-8s from human recombinant CCK1 receptor at 10 uM after 60 mins by scintillation counting analysis relative to control"}}, "data": [{"smiles": "CC(C)(C)NS(=O)(=O)c1ccc(-c2sc(C(=O)N[C@H]3C[C@H](C(=O)O)C3)nc2CC2CCCCC2)c2ccccc12", "values": [{"measurement": "inhibition", "setting": "Rattus norvegicus [1]", "result": "< 10", "unit": "%"}, {"measurement": "INH", "setting": "Cytochrome P450 2C9", "result": 9.9, "unit": "µM"}, {"measurement": "inhibition", "setting": "[2]", "result": 0, "unit": "%"}, {"measurement": "inhibition", "setting": "[3]", "result": "< 10", "unit": "%"}, {"measurement": "IC50", "setting": "[4]", "result": 106, "unit": "nM"}, {"measurement": "Kd", "setting": "[5]", "result": 0.12, "unit": "nM"}, {"measurement": "INH", "setting": "Cytochrome P450 2D6", "result": "> 10", "unit": "µM"}, {"measurement": "inhibition", "setting": "Rattus norvegicus [6]", "result": "< 10", "unit": "%"}, {"measurement": "IC50", "setting": "[7]", "result": 6.42, "unit": "µM"}, {"measurement": "inhibition", "setting": "[8]", "result": -3, "unit": "%"}, {"measurement": "inhibition", "setting": "[9]", "result": -3, "unit": "%"}, {"measurement": "inhibition", "setting": "[10]", "result": "< 10", "unit": "%"}, {"measurement": "inhibition", "setting": "Histamine H2 receptor", "result": "< 10", "unit": "%"}, {"measurement": "IC50", "setting": "[11]", "result": 51, "unit": "nM"}, {"measurement": "IC50", "setting": "[12]", "result": 114, "unit": "nM"}, {"measurement": "inhibition", "setting": "[13]", "result": "< 10", "unit": "%"}, {"measurement": "inhibition", "setting": "Rattus norvegicus [14]", "result": "< 10", "unit": "%"}, {"measurement": "EC50", "setting": "[15]", "result": 82, "unit": "nM"}, {"measurement": "IC50", "setting": "Substance-K receptor", "result": 1.2, "unit": "nM"}, {"measurement": "inhibition", "setting": "Melanocortin receptor 4", "result": "< 10", "unit": "%"}, {"measurement": "inhibition", "setting": "[16]", "result": 6, "unit": "%"}, {"measurement": "IC50", "setting": "[17]", "result": 0.25, "unit": "nM"}, {"measurement": "inhibition", "setting": "D(2) dopamine receptor", "result": "< 10", "unit": "%"}, {"measurement": "inhibition", "setting": "[18]", "result": 54, "unit": "%"}]}]}
